Reference: patent publication US8796463B2 (priority 2009, dated 2014)

Columns and labels:
[1] = log P by HPLC on reversed phase columns (EEC directive 79/831 Annex V.A8); type: physicochemical; conditions: pH 2.7, 0.1% formic acid in water / acetonitrile gradient
Description: Measurement of log P values was performed according EEC directive 79/831 Annex V.A8 by HPLC (High Performance Liquid Chromatography) on reversed phase columns with the following method:
measurement of LC-MS was done at pH 2.7 with 0.1% formic acid in water and with acetonitrile (contains 0.1% formic acid) as eluent with a linear gradient from 10% acetonitrle to 95% acetonitrile.
Calibration was done with not branched alkan2-ones (with 3 to 16 carbon atoms) with known log P-values (measurement of log P values using retention times with linear interpolation between successive alkanones). lambda-maX-values were determined using UV-spectra from 200 nm to 400 nm and the peak values of the chromatographic signals.

Phytophthora infestans = type: in vivo; conditions: tomato, preventive spray, 100 ppm of active ingredient, evaluated 7 days after inoculation
Plasmopara viticola = test: Plasmopara test (grapevines) / preventive; type: in vivo; conditions: preventive spray, 10 ppm of active ingredient, evaluated 6 days after inoculation
Description: Plasmopara Test (Grapevines)/Preventive
To produce a suitable preparation of active compound, 1 part by weight of active compound is mixed with the stated amounts of solvent and emulsifier, and the concentrate is diluted with water to the desired concentration.
To test for preventive activity, young plants are sprayed with the preparation of active compound at the stated rate of application. After the spray coating has dried on, the plants are inoculated with an aqueous spore suspension of Plasmopara viticola and then remain for 1 day in an incubation cabinet at approximately 20° C. and a relative atmospheric humidity of 100%. The plant is subsequently placed for 4 days in a greenhouse at approximately 21° C. and a relative atmospheric humidity of approximately 90%. The plants are then misted and placed for 1 day in an incubation cabinet.
The test is evaluated 6 days after the inoculation. 0% means an efficacy which corresponds to that of the untreated control, while an efficacy of 100% means that no disease is observed.

Row | Structure (SMILES) | logp [1] | Efficacy % (Phytophthora infestans) | Efficacy % (Plasmopara viticola)
1 | Cn1nnnc1C(=NOCc1cccc(NC(=O)C2CC(=O)c3cc(F)ccc3O2)n1)c1ccccc1 (centres unmarked) [Example 1] | 3.46 | 93% | 
2 | Cn1nnnc1C(=NOCc1cccc(NC(=O)C2CCc3cc(I)ccc3O2)n1)c1ccccc1 (centres unmarked) [Example 2] | 4.7 | 95% | 
3 | COc1cccc2c1OC(C(=O)Nc1cccc(CON=C(c3ccccc3)c3nnnn3C)n1)CC2 (centres unmarked) [Example 3] | 3.92 | 95% | 
4 | Cn1nnnc1C(=NOCc1cccc(NC(=O)C2CCc3cc(F)ccc3O2)n1)c1ccccc1 (centres unmarked) [Example 4] | 4.01 | 95% | 
5 | Cn1nnnc1C(=NOCc1cccc(NC(=O)C2CCc3ccccc3O2)n1)c1ccccc1 (centres unmarked) [Example 5] | 4.01 | 95% | 89%
6 | Cn1nnnc1C(=NOCc1cccc(NC(=O)C2COc3ccc(C(C)(C)C)cc3O2)n1)c1ccccc1 (centres unmarked) [Example 6] | 4.92 | 93% | 
7 | Cc1ccc2c(c1)OC(C(=O)Nc1cccc(CON=C(c3ccccc3)c3nnnn3C)n1)CO2 (centres unmarked) [Example 7] | 4.03 | 95% | 75%
8 | Cc1cccc2c1OC(C(=O)Nc1cccc(CON=C(c3ccccc3)c3nnnn3C)n1)CO2 (centres unmarked) [Example 8] | 4.08 | 95% | 87%
9 | Cn1nnnc1C(=NOCc1cccc(NC(=O)C2COc3ccccc3O2)n1)c1ccccc1 (centres unmarked) [Example 9] | 3.69 | 85% | 97%
10 | Cc1ccc2c(c1)OC(C(=O)Nc1nc(CON=C(c3ccccc3)c3nnnn3C)cs1)CO2 (centres unmarked) [Example 12] | 3.78 | 95% | 
11 | Cc1cccc2c1OC(C(=O)Nc1nc(CON=C(c3ccccc3)c3nnnn3C)cs1)CO2 (centres unmarked) [Example 13] | 3.83 | 98% | 
12 | Cn1nnnc1C(=NOCc1csc(NC(=O)C2COc3ccccc3O2)n1)c1ccccc1 (centres unmarked) [Example 14] | 3.46 | 90% | 
13 | Cn1nnnc1C(=NOCc1csc(NC(=O)C2COc3ccc(C(C)(C)C)cc3O2)n1)c1ccccc1 (centres unmarked) [Example 15] | 4.62 | 90% | 
14 | Cn1nnnc1C(=NOCc1csc(NC(=O)C2CC(=O)c3cc(F)ccc3O2)n1)c1ccccc1 (centres unmarked) [Example 16] | 3.29 | 93% | 
15 | Cn1nnnc1C(=NOCc1csc(NC(=O)C2CCc3cc(I)ccc3O2)n1)c1ccccc1 (centres unmarked) [Example 17] | 4.44 | 93% | 
16 | COc1cccc2c1OC(C(=O)Nc1nc(CON=C(c3ccccc3)c3nnnn3C)cs1)CC2 (centres unmarked) [Example 18] | 3.64 | 95% | 
17 | Cn1nnnc1C(=NOCc1csc(NC(=O)C2CCc3cc(F)ccc3O2)n1)c1ccccc1 (centres unmarked) [Example 19] | 3.8 | 95% | 
18 | Cn1nnnc1C(=NOCc1csc(NC(=O)C2CCc3ccccc3O2)n1)c1ccccc1 (centres unmarked) [Example 20] | 3.78 | 93% | 
19 | Cc1nnnn1C(=NOCc1cccc(NC(=O)C2CCc3cc(I)ccc3O2)n1)c1ccccc1 (centres unmarked) [Example 21] | 4.81 | 80% | 
20 | COc1cccc2c1OC(C(=O)Nc1cccc(CON=C(c3ccccc3)n3nnnc3C)n1)CC2 (centres unmarked) [Example 22] | 3.99 | 80% | 
21 | Cc1nnnn1C(=NOCc1cccc(NC(=O)C2CCc3cc(F)ccc3O2)n1)c1ccccc1 (centres unmarked) [Example 23] | 4.11 | 90% | 
22 | Cc1nnnn1C(=NOCc1cccc(NC(=O)C2CCc3ccccc3O2)n1)c1ccccc1 (centres unmarked) [Example 24] | 4.08 | 93% | 
23 | Cc1nnnn1C(=NOCc1cccc(NC(=O)C2COc3ccc(C(C)(C)C)cc3O2)n1)c1ccccc1 (centres unmarked) [Example 25] | 5.03 | 93% | 
24 | Cc1ccc2c(c1)OC(C(=O)Nc1cccc(CON=C(c3ccccc3)n3nnnc3C)n1)CO2 (centres unmarked) [Example 26] | 4.11 | 95% | 
25 | Cc1cccc2c1OC(C(=O)Nc1cccc(CON=C(c3ccccc3)n3nnnc3C)n1)CO2 (centres unmarked) [Example 27] | 4.15 | 95% | 
26 | Cc1nnnn1C(=NOCc1cccc(NC(=O)C2COc3ccccc3O2)n1)c1ccccc1 (centres unmarked) [Example 28] | 3.78 | 98% | 

Row | Structure (SMILES) | logp [1] | Efficacy % (Phytophthora infestans) | Efficacy % (Plasmopara viticola)
27 | Cc1nnnn1C(=NOCc1cccc(NC(=O)C2CC(=O)c3cc(F)ccc3O2)n1)c1ccccc1 (centres unmarked) [Example 29] | 3.53 | 90% | 
28 | COc1cccc2c1OC(C(=O)Nc1nc(CON=C(c3ccccc3)n3nnnc3C)cs1)CC2 (centres unmarked) [Example 30] | 3.69 | 95% | 
29 | Cc1nnnn1C(=NOCc1csc(NC(=O)C2CCc3cc(F)ccc3O2)n1)c1ccccc1 (centres unmarked) [Example 31] | 3.87 | 95% | 
30 | Cc1nnnn1C(=NOCc1csc(NC(=O)C2CCc3ccccc3O2)n1)c1ccccc1 (centres unmarked) [Example 32] | 3.83 | 95% | 
31 | Cc1nnnn1C(=NOCc1csc(NC(=O)C2COc3ccc(C(C)(C)C)cc3O2)n1)c1ccccc1 (centres unmarked) [Example 33] | 4.67 | 90% | 
32 | Cc1ccc2c(c1)OC(C(=O)Nc1nc(CON=C(c3ccccc3)n3nnnc3C)cs1)CO2 (centres unmarked) [Example 34] | 3.83 | 95% | 
33 | Cc1cccc2c1OC(C(=O)Nc1nc(CON=C(c3ccccc3)n3nnnc3C)cs1)CO2 (centres unmarked) [Example 35] | 3.87 | 95% | 
34 | Cc1nnnn1C(=NOCc1csc(NC(=O)C2COc3ccccc3O2)n1)c1ccccc1 (centres unmarked) [Example 36] | 3.51 | 95% | 
35 | Cc1nnnn1C(=NOCc1csc(NC(=O)C2CC(=O)c3cc(F)ccc3O2)n1)c1ccccc1 (centres unmarked) [Example 37] | 3.33 | 95% | 
36 | Cc1nnnn1C(=NOCc1csc(NC(=O)C2CCc3cc(I)ccc3O2)n1)c1ccccc1 (centres unmarked) [Example 38] | 4.49 | 95% | 
37 | COc1ccc2c(c1)OC(C(=O)Nc1cccc(CON=C(c3ccccc3)c3nnnn3C)n1)CC2 (centres unmarked) [Example 39] | 3.96 | 95% | 
38 | COc1ccc2c(c1)OC(C(=O)Nc1nc(CON=C(c3ccccc3)c3nnnn3C)cs1)CC2 (centres unmarked) [Example 40] | 3.78 | 98% | 96%
39 | Cn1nnnc1C(=NOCc1csc(NC(=O)C2Cc3ccccc3O2)n1)c1ccccc1 (centres unmarked) [Example 42] | 3.39 | 89% | 100%
40 | Cc1nnnn1C(=NOCc1cccc(NC(=O)c2cc(=O)c3ccccc3o2)n1)c1ccccc1 [Example 43] | 3.33 | 85% | 
41 | Cc1nnnn1C(=NOCc1csc(NC(=O)c2cc(=O)c3ccccc3o2)n1)c1ccccc1 [Example 44] | 3.21 | 95% | 
42 | Cc1nnnn1C(=NOCc1csc(NC(=O)C2Cc3ccccc3O2)n1)c1ccccc1 (centres unmarked) [Example 45] | 3.44 | 98% | 96%
43 | Cc1nnnn1C(=NOCc1csc(NC(=O)C2Oc3ccccc3O2)n1)c1ccccc1 [Example 46] | 3.31 | 75% | 
44 | Cn1nnnc1C(=NOCc1csc(NC(=O)c2cc(=O)c3ccccc3o2)n1)c1ccccc1 [Example 47] | 3.17 | 70% | 
45 | Cn1nnnc1C(=NOCc1csc(NC(=O)C2Oc3ccccc3O2)n1)c1ccccc1 [Example 48] | 3.29 | 80% | 
46 | Cn1nnnc1C(=NOCc1csc(NC(=O)C2COc3ccccc32)n1)c1ccccc1 (centres unmarked) [Example 49] | 3.19 |  | 
47 | Cc1nnnn1C(=NOCc1cccc(NC(=O)C2Cc3ccccc3O2)n1)c1ccccc1 (centres unmarked) [Example 56] | 3.71 | 100% | 85%
48 | Cc1nnnn1C(=NOCc1cccc(NC(=O)C2Oc3ccccc3O2)n1)c1ccccc1 [Example 57] | 3.48 | 88% | 
49 | Cc1nnnn1C(=NOCc1cccc(NC(=O)C2COc3ccccc32)n1)c1ccccc1 (centres unmarked) [Example 58] | 3.39 |  | 
50 | Cn1nnnc1C(=NOCc1cccc(NC(=O)c2cc(=O)c3ccccc3o2)n1)c1ccccc1 [Example 59] | 3.27 | 95% | 
51 | Cn1nnnc1C(=NOCc1cccc(NC(=O)C2Oc3ccccc3O2)n1)c1ccccc1 [Example 60] | 3.44 | 95% | 97%
52 | Cn1nnnc1C(=NOCc1cccc(NC(=O)C2COc3ccccc32)n1)c1ccccc1 (centres unmarked) [Example 61] | 3.37 |  | 
